Assay results taken from PMC6364417, “Kinase inhibitor library screening identifies synergistic drug combinations effective in sensitive and resistant melanoma cells” (Journal of Experimental & Clinical Cancer Research : CR, 2019).

What was measured:
Test in all cases: Kinase inhibitor library screening, PrestoBlue cell viability, 1 or 10 μM, 72 h
501Mel cells (parental) = conditions: 72 h
Outline: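 Treatment: 72 h with inhibitor. Detection: PrestoBlue, plate reader. Output: viability as % untreated control. Replicates: duplicate minimum. Lines: parental plus Vemurafenib- or Dabrafenib-resistant derivatives.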

IGR37 cells (parental) = test system: IGR37 cells (parental)
[1] = test system: A375-XP cells (Vemurafenib-resistant)
A375 cells (parental) = test system: A375 cells (parental)
[2] = test system: A375-GP cells (Dabrafenib-resistant)
[3] = test system: IGR37-XP cells (Vemurafenib-resistant)
[4] = test system: 501Mel-GP cells (Dabrafenib-resistant); conditions: 72 h
[5] = test system: IGR37-GP cells (Dabrafenib-resistant)
[6] = test system: 501Mel-XP cells (Vemurafenib-resistant); conditions: 72 h
[7] = IGR37 Parental, 10μΜ, 72 h, in %

CC(C)(C)Cn1c(N)nc2ccc(-c3[nH]c(C(C)(C)C)nc3-c3ccc(F)cc3)nc21 [LY2228820]
Cell viability in kinase inhibitor library screening, 501Mel Parental, 1μΜ (501Mel cells (parental); 501Mel Parental, 1μΜ, in %): 95.6
Cell viability in kinase inhibitor library screening, 501Mel Parental, 10μΜ (501Mel cells (parental); 501Mel Parental, 10μΜ, in %): 91.9
Cell viability in kinase inhibitor library screening, IGR37 Parental, 10μΜ (IGR37 cells (parental); [7]): 98.8
Cell viability in kinase inhibitor library screening, A375 XP, 1μΜ ([1]; A375 XP, 1μΜ, 72 h): 100.0
Cell viability in kinase inhibitor library screening, A375 XP, 10μΜ ([1]; A375 XP, 10μΜ, 72 h): 84.7
Cell viability in kinase inhibitor library screening, A375 Parental, 10μΜ (A375 cells (parental); A375 Parental, 10μΜ, 72 h): 91.0
Cell viability in kinase inhibitor library screening, A375 Parental, 1μΜ (A375 cells (parental); A375 Parental, 1μΜ, 72 h): 105.7
Cell viability in kinase inhibitor library screening, A375 GP, 1μΜ ([2]; A375 GP, 1μΜ, 72 h): 105.3
Cell viability in kinase inhibitor library screening, A375 GP, 10μΜ ([2]; A375 GP, 10μΜ, 72 h): 79.1
Cell viability in kinase inhibitor library screening, IGR37 XP, 10μΜ ([3]; IGR37 XP, 10μΜ, 72 h): 38.4%
Cell viability in kinase inhibitor library screening, IGR37 XP, 1μΜ ([3]; IGR37 XP, 1μΜ, 72 h, in %): 91.6
Cell viability in kinase inhibitor library screening, 501Mel GP, 1μΜ ([4]; 501Mel GP, 1μΜ, in %): 108.2
Cell viability in kinase inhibitor library screening, IGR37 GP, 10μΜ ([5]; IGR37 GP, 10μΜ, 72 h): 82.8%
Cell viability in kinase inhibitor library screening, IGR37 GP, 1μΜ ([5]; IGR37 GP, 1μΜ, 72 h, in %): 90.6
Cell viability in kinase inhibitor library screening, 501Mel XP, 1μΜ ([6]; 501Mel XP, 1μΜ, in %): 97.0
Cell viability in kinase inhibitor library screening, 501Mel XP, 10μΜ ([6]; 501Mel XP, 10μΜ, in %): 82.4

Cc1cnc(NC(=O)Nc2cc(Br)c(C)cc2OC[C@@H]2CNCCO2)cn1 [LY2603618 (IC-83)]
cell viability (kinase inhibitor library screening) (501Mel cells (parental); 501Mel Parental, 1μΜ): 84.2%
cell viability (kinase inhibitor library screening) (501Mel cells (parental); 501Mel Parental, 10μΜ): 2.1%
cell viability (kinase inhibitor library screening) (IGR37 cells (parental); IGR37 Parental, 1μΜ, 72 h): 81.7%
cell viability (kinase inhibitor library screening) (IGR37 cells (parental); IGR37 Parental, 10μΜ, 72 h): 37.5%
cell viability (kinase inhibitor library screening) ([1]; A375 XP, 1μΜ, 72 h): 87.2%
cell viability (kinase inhibitor library screening) ([1]; A375 XP, 10μΜ, 72 h): 15.7%
cell viability (kinase inhibitor library screening) (A375 cells (parental); A375 Parental, 10μΜ, 72 h): 15.4%
cell viability (kinase inhibitor library screening) (A375 cells (parental); A375 Parental, 1μΜ, 72 h): 86.3%
cell viability (kinase inhibitor library screening) ([2]; A375 GP, 10μΜ, 72 h): 11.5%
cell viability (kinase inhibitor library screening) ([3]; IGR37 XP, 1μΜ, 72 h): 52.7%
cell viability (kinase inhibitor library screening) ([3]; IGR37 XP, 10μΜ, 72 h): 26.7%
cell viability (kinase inhibitor library screening) ([4]; 501Mel GP, 1μΜ): 91.7%
cell viability (kinase inhibitor library screening) ([4]; 501Mel GP, 10μΜ): 4.4%
cell viability (kinase inhibitor library screening) ([5]; IGR37 GP, 1μΜ, 72 h): 73.8%
cell viability (kinase inhibitor library screening) ([5]; IGR37 GP, 10μΜ, 72 h): 67.9%
cell viability (kinase inhibitor library screening) ([6]; 501Mel XP, 1μΜ): 69.5%
cell viability (kinase inhibitor library screening) ([6]; 501Mel XP, 10μΜ): -0.8%

Cc1cc(Nc2cc(CN3CCOCC3)c3nc(C)c(Cc4ccc(Cl)cc4F)n3n2)n[nH]1 [LY2784544]
viability at 1 µM (501Mel cells (parental); Homo sapiens, read-out: cell viability, 501Mel Parental, 1μΜ): 89.9%
viability at 10 µM (501Mel cells (parental); Homo sapiens, read-out: cell viability, 501Mel Parental, 10μΜ): 67.3%
viability at 1 µM (IGR37 cells (parental); Homo sapiens, IGR-37, 72 h, read-out: cell viability, IGR37 Parental, 1μΜ): 99.2%
viability at 10 µM (IGR37 cells (parental); Homo sapiens, IGR-37, 72 h, read-out: cell viability, IGR37 Parental, 10μΜ): 87%
viability at 1 µM ([1]; Homo sapiens, A-375, 72 h, read-out: cell viability, A375 XP, 1μΜ): 102%
viability at 10 µM ([1]; Homo sapiens, A-375, 72 h, read-out: cell viability, A375 XP, 10μΜ): 35.9%
viability at 1 µM (A375 cells (parental); Homo sapiens, A-375, 72 h, read-out: cell viability, A375 Parental, 1μΜ): 94.9%
viability at 10 µM (A375 cells (parental); Homo sapiens, A-375, 72 h, read-out: cell viability, A375 Parental, 10μΜ): 28.1%
viability at 1 µM ([2]; Homo sapiens, A-375, 72 h, read-out: cell viability, A375 GP, 1μΜ): 101%
viability at 10 µM ([2]; Homo sapiens, A-375, 72 h, read-out: cell viability, A375 GP, 10μΜ): 26.9%
viability at 1 µM ([3]; Homo sapiens, IGR-37, 72 h, read-out: cell viability, IGR37 XP, 1μΜ): 91.6%
viability at 10 µM ([3]; Homo sapiens, IGR-37, 72 h, read-out: cell viability, IGR37 XP, 10μΜ): 17.9%
viability at 1 µM ([4]; Homo sapiens, read-out: cell viability, 501Mel GP, 1μΜ): 99.1%
viability at 10 µM ([4]; Homo sapiens, read-out: cell viability, 501Mel GP, 10μΜ): 49%
viability at 1 µM ([5]; Homo sapiens, IGR-37, 72 h, read-out: cell viability, IGR37 GP, 1μΜ): 90.3%
viability at 10 µM ([5]; Homo sapiens, IGR-37, 72 h, read-out: cell viability, IGR37 GP, 10μΜ): 53.2%
viability at 1 µM ([6]; Homo sapiens, read-out: cell viability, 501Mel XP, 1μΜ): 87.1%
viability at 10 µM ([6]; Homo sapiens, read-out: cell viability, 501Mel XP, 10μΜ): 27.9%

CS(=O)(=O)CCNCc1ccc(-c2ccc3ncnc(Nc4ccc(OCc5cccc(F)c5)c(Cl)c4)c3c2)o1.Cc1ccc(S(=O)(=O)O)cc1.Cc1ccc(S(=O)(=O)O)cc1 [Lapatinib Ditosylate (Tykerb)]
cell viability, 501Mel Parental, 10μΜ (501Mel cells (parental); 501Mel Parental, 10μΜ, in %): 33.4
cell viability, IGR37 Parental, 10μΜ (IGR37 cells (parental); [7]): 92.3
cell viability, A375 XP, 1μΜ ([1]; A375 XP, 1μΜ, 72 h, in %): 114.8
cell viability, A375 XP, 10μΜ ([1]; A375 XP, 10μΜ, 72 h, in %): 72.3
cell viability, A375 Parental, 10μΜ (A375 cells (parental); A375 Parental, 10μΜ, 72 h, in %): 78.4
cell viability, A375 GP, 10μΜ ([2]; A375 GP, 10μΜ, 72 h, in %): 81.7
cell viability, IGR37 XP, 10μΜ ([3]; IGR37 XP, 10μΜ, 72 h): 1.6%
cell viability, 501Mel GP, 10μΜ ([4]; 501Mel GP, 10μΜ, in %): 78.0
cell viability, IGR37 GP, 10μΜ ([5]; IGR37 GP, 10μΜ, 72 h): 14%
cell viability, 501Mel XP, 1μΜ ([6]; 501Mel XP, 1μΜ, in %): 94.1
cell viability, 501Mel XP, 10μΜ ([6]; 501Mel XP, 10μΜ, in %): -0.129
